Measured values published in patent EP4656630A1, “NOVEL COMPOUND AS LYSYL-TRNA SYNTHETASE 1 INHIBITOR, AND USE THEREOF” (Zymedi Co., Ltd., priority 2023, dated 2024).

Key:
[1] = Microsomal metabolic stability, human; format: in vitro ADME
Method: (§1) Metabolic stability (MS) evaluation was conducted for the selected compounds by measuring in vitro stability in two species, rat and human, according to the microsomal stability measurement method. As a result, it was identified that MS varied depending on the transformation of parts A, B, and C.

[2] = Microsomal metabolic stability, rat; format: in vitro ADME
Method: as §1

KARS1 and 37LR = biological target: T1, KARS1 and 37LR (Homo sapiens, UniProt Q15046); assay: Cell-free ELISA of KARS1 and 37LR (laminin receptor) binding; settings: 10 µM compound, 1 hour, plate coated with KARS1 (1-207aa), LRF
T1 construct: KARS1 (1-207aa)
Method: Next, based on the mechanism of action, a cell-free ELISA analysis was conducted to select compounds with high inhibitory activity on the binding of KARS1 and LR (laminin receptor).

Raw 264.7 cells = assay: LN (Laminin 421)-induced immune cell migration, Transwell; format: cell-based; settings: Mus musculus, RAW264.7; 3 µM compound, LN (Laminin 421 1 µg/ml), 24 hours, % inhibition compared to control group; read-out: Migration inhibitor % (3uM)
Method: Cell migration was assessed based on the method described in the prior literature (Park, S. G. et al. Human lysyl-tRNA synthetase is secreted to trigger proinflammatory response. Proceedings of the National Academy of Sciences, 2005, 102.18: 6356-6361.). The specific experimental method is as follows. A Transwell (Corning#3421-5µm pore) was coated with gelatin (0.5mg/ml), and then Raw 264.7 cells (1 x 10^5 cells/well) were seeded in the upper chamber. Serum-free medium (Serum Free DMEM, 500 µl) containing LN (Laminin 421 1 µg/ml) was added to the lower chamber. Each compound was treated at a concentration of 3µM in the upper chamber. After 24 hours, the cells were fixed with 70% methanol for 30 minutes and stained with 50% hematoxylin for 30 minutes. Non-migrating cells on the upper side of the membrane were removed with a cotton swab, and the membrane was mounted on a slide. Migrating cells on the lower side of the membrane were observed under a high-power microscope, and the number of cells was measured from the obtained images and expressed as the inhibition rate (% inhibition) compared to the control group.

Raw264.7 cells = assay: KARS1-induced trans-migration assay; format: cell-based, mouse; settings: Mus musculus, RAW264.7; 1 µM compound; read-out: KARS1-induced Raw264.7 cell migration (% inhibition, 1uM)
Method: C0001 inhibits the binding of KARS1 and 67LR, thereby blocking the migration of monocytes/macrophages and suppressing inflammation. Accordingly, a trans-migration assay using mouse macrophages (Raw264.7) was conducted to preliminarily screen drugs that inhibit the migration of monocytes/macrophages.
Based on this, when KARS1 protein was directly treated externally instead of LN, the trans-migration of Raw264.7 was induced, and the cell migration inhibitory effect of the KARS1 inhibitor C0001 was confirmed. It was verified that C0001, which specifically binds to KARS1, can inhibit cell migration by binding to extracellular KARS1, in addition to the mechanism of inhibiting cell membrane migration of KARS1 induced by laminin and its binding to 67LR, thereby enabling this analysis to be used as a direct method for evaluating in vitro activity against KARS1.
Next, preliminary candidate substances with high inhibitory activity at 1 µM were treated at concentrations of 0.1~4 µM for analysis.

[3] = Rat pharmacokinetics (po and iv) and bioavailability; format: in vivo; settings: po; for Cmax / Tmax / half-life / AUC: in vivo
Method: For this purpose, formulations suitable for peroral administration (po) and intravenous injection (iv) for each compound were first selected to ensure stable PK progression.
The formulation was selected under the condition of maintaining a clear solution for more than 1 hour at 10 and 30 mpk doses based on po, and the iv formulation was modified when iv use was not possible based on po (Table 8).
To confirm the oral administration potential of the selected compounds, 10 mpk rat po PK was conducted. The PK profile and key indicators after administering 10 mpk to five compounds, C0001, 25, 41, 42, and 43, are shown in Figure 3 and Table 9.
Based on the previous 10 mpk po rat PK results, 30 mpk po rat PK was conducted for four compounds, C0001, 25, 41, and 43, to confirm changes in the blood PK profile of the substances with increasing doses.
For these compounds, 2 mpk iv rat PK was conducted to calculate bioavailability (BA) (Table 11).

T1 sequence (Q15046 1-207): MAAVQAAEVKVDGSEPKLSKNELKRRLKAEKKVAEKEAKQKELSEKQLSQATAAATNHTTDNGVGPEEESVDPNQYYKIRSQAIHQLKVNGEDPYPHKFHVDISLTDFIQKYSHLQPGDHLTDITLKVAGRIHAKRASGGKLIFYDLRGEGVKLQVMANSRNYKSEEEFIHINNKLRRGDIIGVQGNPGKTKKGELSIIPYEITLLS

Structure (SMILES) | Metabolic stability (% remaining at 30 min) Human [1] | Metabolic stability (% remaining at 30 min) Rat [2] | inhibition at 10 µM (KARS1 and 37LR) | inhibition at 3 µM (Raw 264.7 cells) | inhibition at 1 µM (Raw264.7 cells) | further results
COc1ccc(CCN(Cc2ccc(N3CCC(C(=O)O)C3)cc2)c2nc3cccc(F)c3s2)cc1 (stereo not shown) [Compound 13, 1-(4-(((7-fluorobenzo[d]thiazol-2-yl)(4-methoxyphenethyl)amino)-methyl)phenyl)pyrrolidine-3-carboxylic acid] | 74% | 90% | 83.9% | 90% | 93.4% | –
COc1ccc(CCN(Cc2cccc(N3CCC(C(=O)O)C3)c2)c2nc3cccc(F)c3s2)cc1 (stereo not shown) [Compound 17, 1-(3-(((7-fluorobenzo[d]thiazol-2-yl)(4-methoxyphenethyl)amino)-methyl)phenyl)pyrrolidine-3-carboxylic acid] | 58% | 71% | 79% | 42% | 5.6% | –
COc1ccc(CCN(Cc2nc3ccc(C(=O)O)cc3n2C)c2nc3cccc(F)c3s2)cc1 [Compound 27, 2-(((7-fluorobenzo[d]thiazol-2-yl)(4-methoxyphenethyl)amino)methyl)-1-methyl-1H-benzo[d]imidazole-6-carboxylic acid] | – | – | 14% | 9% | 9.1% | –
COc1ccc(CCN(Cc2ccc3c(c2)CN(C(N)=O)C3)c2nc3cccc(F)c3s2)cc1 [Compound 30, 5-(((7-fluorobenzo[d]thiazol-2-yl)(4-methoxyphenethyl)amino)-methyl)isoindoline-2-carboxamide] | – | – | 64% | 37.4% | 3.2% | –
COc1ccc(CCN(Cc2ccc3c(c2)CN(CC(=O)O)C3)c2nc3cccc(F)c3s2)cc1 [Compound 32, 2-(5-(((7-fluorobenzo[d]thiazol-2-yl)(4-methoxyphenethyl)amino)-methyl)isoindolin-2-yl)acetic acid] | – | – | -27.9% | 45% | 18.1% | –
COc1ccc(CCN(Cc2ccc(NC3(C(=O)O)CCC3)cc2)c2nc3cccc(F)c3s2)cc1 [Compound 33, 1-((4-(((7-fluorobenzo[d]thiazol-2-yl)(4-methoxyphenethyl)amino)-methyl)phenyl)amino)cyclobutane-1-carboxylic acid] | – | – | 41.9% | 15.7% | 57.6% | –

The next lines start with results.

Metabolic stability (% remaining at 30 min) Human [1] | Metabolic stability (% remaining at 30 min) Rat [2] | inhibition at 10 µM (KARS1 and 37LR) | Structure (SMILES) | inhibition at 3 µM (Raw 264.7 cells) | inhibition at 1 µM (Raw264.7 cells) | further results
– | – | 37.5% | COc1ccc(CCN(Cc2ccc(N3CC(C(=O)O)C3)cc2)c2nc3cccc(F)c3s2)cc1 [Compound 39, 1-(4-(((7-fluorobenzo[d]thiazol-2-yl)(4-methoxyphenethyl)amino)-methyl)phenyl)azetidine-3-carboxylic acid] | 51.9% | 97.4% | –
– | – | 66.7% | O=C(O)[C@@H]1CCN(c2cccc(CN(CCc3ccc(OC(F)(F)F)cc3)c3nc4cccc(F)c4s3)c2)C1 [Compound 40, (R)-1-(3-(((7-fluorobenzo[d]thiazol-2-yl)(4-(trifluoromethoxy)-phenethyl)amino)methyl)phenyl)pyrrolidine-3-carboxylic acid] | 37.7% | 76.1% | –
51% | 58% | 69.6% | COc1ccc(CCN(c2nc3cccc(F)c3s2)C(C)c2cccc(N3CC[C@@H](C(=O)O)C3)c2)cc1 (stereo partly drawn) [Compound 41, (3R)-1-(3-(1-((7-fluorobenzo[d]thiazol-2-yl)(4-methoxyphenethyl)-amino)ethyl)phenyl)pyrrolidine-3-carboxylic acid] | 58.7% | 90.2% | Cmax ([3]; 10 mg/kg, 10 mpk): 4230 ng/mL; Tmax ([3]; 10 mg/kg, 10 mpk): 0.83 h; half-life ([3]; 10 mg/kg, 10 mpk): 1.96 h; Cmax ([3]; 30 mg/kg, 30 mpk): 6470 ng/mL; Tmax ([3]; 30 mg/kg, 30 mpk): 1 h; half-life ([3]; 30 mg/kg, 30 mpk): 2.13 h; AUC ([3]; 30 mg/kg, 30 mpk): 28500 ng·h/mL; AUC (ng*h/ml) ([3]; 10 mpk, 10 mg/kg): exceeding 5,000 ng*h/ml; AUC (ng*h/ml) ([3]; 10 mpk, listed as 41 (C0189), 10 mg/kg): 11,859 ng*h/ml; AUC value increase at 30 mpk ([3]; 30 mpk compared with 10 mpk): approximately 2.4 times
76% | 43% | 65.6% | COc1ccc(CCN(c2nc3cccc(F)c3s2)C(C)c2ccc(N3CC[C@H](C(=O)O)C3)cc2)cc1 (stereo partly drawn) [Compound 42, (3S)-1-(4-(1-((7-fluorobenzo[d]thiazol-2-yl)(4-methoxyphenethyl)-amino)ethyl)phenyl)pyrrolidine-3-carboxylic acid] | 63.1% | 85.8% | Cmax ([3]; 10 mg/kg, 10 mpk): 240 ng/mL; Tmax ([3]; 10 mg/kg, 10 mpk): 0.67 h; half-life ([3]; 10 mg/kg, 10 mpk): 1.32 h; AUC ([3]; 10 mg/kg, 10 mpk): 1420 ng·h/mL
